Results as given in patent publication US5952390A, “10-substituted 1,8-dihydroxy-9(10H) anthracenone pharmaceuticals” (Teva Pharmaceutical Industries Ltd., priority 1998, dated 1999).

Legend:
[1] = Lipid peroxidation in bovine brain phospholipid liposomes; conditions: Table I (Addendum); n = 3 or more; standard errors average 20%; read-out: LPO IC50
Procedure: Phospholipids were prepared essentially as described by Gutteridge, J. M. C., "The Measurement of Malondialdehyde in Peroxidised Ox-Brain Phospholipid Liposomes", Anal. Biochem., 82, 76-82 (1977). Bovine brain, cooled on ice, was freed from blood vessels and washed repeatedly with 0.15M NaCl, pH 7.4. It was cut to pieces and then macerated with an ultra-turrax, passed through a close-meshed sieve, and extracted four times with four times the volume of acetone. The extraction mixture was filtered by suction to remove the acetone, the residue was dried under vacuum, and then repeatedly extracted with petroleum ether (40-60) using twice the volume of the original brain homogenate. The combined extracts were filtered, dried at 45° C., and dissolved in ether (one fifth of the original brain volume). The mixture was treated with five times the volume of acetone, and the resulting precipitate was collected by suction-filtration, dried and stored under N2 at -20° C. in the dark. Bovine brain phospholipids were weighed into glass tubes and shaken in a vortex mixer (Heidolph) in the presence of five small glass beads (.phi. 4 mm) for 1 min. […]
The following reagents were added to glass tubes in the order and at the final concentrations stated. […] The organic layer was separated by centrifugation at 3000 rpm (15 min) and the absorbance at 532 nm was measured against butanol.

[2] = Degradation of 2-deoxy-D-ribose (hydroxyl radical formation); conditions: Table I (Addendum); controls: <0.1; 75 μM compound per method
Procedure: This assay followed generally the procedures of Gutteridge, J. M. C., "Reactivity of Hydroxyl and Hydroxyl-Like Radicals Discriminated by Release of Thiobarbituric Acid-Reactive Material from Deoxy Sugars, Nucleosides and Benzoate", Biochem. J., 224, 761-767 (1984) and of Laughton, M. J. et al., "Antioxidant and Prooxidant Actions of the Plant Phenolics Quercetin, Gossypol and Myricetin", Biochem. Pharmacol., 38, 2859-2865 (1989). The following reagents were added to glass tubes in the order and at the final concentrations stated. 0.3 ml KH2 PO4 -KOH buffer, pH 7.4 (30 mM), 0.2 ml H2 O bidist., 0.2 ml 2-deoxy-D-ribose (2 mM), 0.2 ml FeCl3 .cndot.6 H2 O (0.1 mM), 0.1 ml anthracenone derivative (75 μM). Stock solutions of the compounds were made up fresh before use. Appropriate blanks and controls with the vehicle (acetonitrile) were conducted. The final reaction volumes were standardized to 1.0 ml. The reaction mixtures were incubated for 2 h at 37° C. in a shaking water bath. 1.0 ml of 2.8% (w/v) trichloroacetic acid and 1.0 ml of 1% (w/v in 0.05 N NaOH) 2-thiobarbituric acid (TBA) were added, and the samples were heated at 100° C. for 15 min and then cooled in an ice bath (5 min). Then 2.0 ml of the reaction mixtures were treated with 0.05 ml of 36% (w/v) HCl and 2.0 ml of 1-butanol and the mixtures were vigorously shaken in a vortex mixer (Heidolph) for 15 s. The organic layer was separated by centrifugation at 3000 rpm (15 min) and the absorbance at 532 nm was measured against butanol. […]
The biological assay methods were as follows: LDH release as described in Muller K, Huang H-S, Wiegrebe W, J. Med. Chem. 39, 3132-3138 (1996); bovine PMNL 5-LO assay as described in Muller K, Gurster D, Piwek S, Wiegrebe W, J. Med. Chem. 36, 4099-4107 (1993); and degradation of 2-deoxy-D-ribose as described in Muller K, Gurster D, Biochem. Pharmacol. 46, 1695-1704 (1993). […] Extracellular LDH activity was measured using the UV method with pyruvate and NADH and is expressly in mU/ml. […]

CCCC(=O)C1c2cccc(O)c2C(=O)c2c(O)cccc21 [Butantrone, 10-Butyryl-Dithranol]
IC50 [1]: 4 µM | deoxyribose degradation [2]: 0.24 ± 0.03 μmol MDA/mmol
